In patent US4801616A, “Diphenylmethanone compounds and anti-inflammatory use thereof” (Eli Lilly and Company, priority 1986, dated 1989):

What was measured:
[1] = target: T1, fatty acid cyclooxygenase (Homo sapiens, UniProt P23219); experiment: Fatty Acid Cyclooxygenase (FCO) Assay, inhibition of PGE2 formation by purified human platelet enzyme; type: biochemical; conditions: for inhibition at 30 µg/mL: percent inhibition at 30 μg/ml; for IC50: human platelet microsomal enzyme, pH 8.0, 37° C.
T1 construct: The solubilized fatty acid cyclooxygenase was applied to a 440 ml electrofocusing column; from tissue; host or cells: human platelets: microsomes solubilized with Triton X-100, purified by electrofocusing and G-200 Sephadex
Protocol: Fatty Acid Cyclooxygenase (FCO) Assay
Microsomes were prepared from 185 bags of human platelets (each bag containing the platelets from one pint of blood prepared using differential centrifugation procedures). The platelets from approximately 60 bags were prepared at one time. Platelet-rich plasma (500 g) was centrifuged at 10,000×g for 20 minutes, and the platelet pellet was suspended in 100 ml of 0.1M potassium phosphate buffer, pH 8.0, with a Teflon glass homogenizer and sonicated for 5.0 minutes with a Bronson Sonifier (Model 350) in a rosette flask cooled in ice water. Disrupted platelets were centrifuged 15 minutes at 10,000× g. The supernatant was centrifuged at 100,000× g for 90 minutes and the microsomal pellets were homogenized in 25 ml of 20% sucrose containing 1.0% Triton X-100 detergent. After 30 minutes at 4° C., the solubilized microsomes were centrifuged at 100,000× g for 60 minutes. The yellow supernatant was removed and stored at -70 ° C.
The solubilized fatty acid cyclooxygenase was applied to a 440 ml electrofocusing column (LKB-8012) containing 1% phisolytes (Brinkman Instruments, Westburgh, NY), pH 2-11, with the cathode at the top of the column. The enzyme was layered onto the column at the appropriate time so that its sucrose concentration was equal to that of the column gradient. This was accomplished by checking the gradient concentration periodically with a sucrose hand refractometer. Electrofocusing was carried out for 16 hours with an initial voltage of 400 V and a final voltage of 900-1,000 volts. Fractions were collected (20 ml) and assayed for PGE2 formation. Active peak fractions were pooled and concentrated by ultrafiltration (XM 100A) to a volume of 3-5 ml.
Active fractions from electrofocusing were applied to a G-200 Sephadex column (2 cm×46 cm) and eluted with 10 mM potassium phosphate buffer, pH 7.0, in 5 ml fractions. After assay, active fractions were poored and concentrated to 1.0 ml by ultrafiltration (XM 100A), and kept frozen at -70° C.
Enzyme activity was determined by assaying for PGE2 formation by preincubating the enzyme with 10 mmol/l imidazole phosphate buffer, pH 8.0, 2 mmol/l epinephrine, 2 mmol/l methemoglobin, and the test compound (30 μg/ml) in a total volume of 0.2 ml for one minute at 37° C. After preincubation, 5 mmol/l ^14 C-arachidonic acid were added and the mixture was incubated an additional 0.5 minutes at 37° C. The enzyme reaction was stopped by the addition of 2 μl of indomethacin (2 mg/ml) in alcohol.
The reaction mixture was spotted (50 μl) on a silica gel (LQ6D) plate and subjected to TLC. The solvent system consisted of chloroform-methanol-glacial acetic acid (90:5:5, v/v/v) and the relative mobilities were PGF2α =0.235, and PGE2 =0.47. The silica gel on the plate was scraped in 1 cm sections, suspended in 5 ml of the scintillation fluid [5.88 g of 2,5-diphenyloxazole and 118 mg of 1,4 -bis(5-phenyloxazol-2-yl)benzene] dissolved in 650 ml of toluene and 350 ml of Triton X-100) and the radioactivity was determined in an Isocap/300 liquid scintillation counter (Searle Analytic, Inc., Southfield, Mich.). Another 50 μl of the mixture was added to 10 ml of the Triton X-100 based scintillation fluid, and the radioactivity was determined so that the amount of radioactivity recovery from the TLC plate could be ascertained. PGE2 formation for each test compound was determined as a percent of control experiments wherein no test compound was added. Data is expressed in Table I either as the percent inhibition of formation of PGE2 at a test compound concentration of 30 μ g/ml, or as an IC50 for inhibition of PGE2 formation.

[2] = tested on: Collagen-Induced Arthritis; experiment: Collagen-Induced Arthritis Assay, hindpaw volume; type: in vivo, rat (inbred Lewis male); conditions: Rattus norvegicus, po, oral gavage, 5 days per week, 28 or 30 days, rats
Protocol: Collagen-Induced Arthritis Assay
Type II collagen was isolated from bovine articular cartilage by the method of Strawich and Nimni Biochemistry, 10, 3905 (1971)]. The collagen was dissolved in 0.1 M acetic acid and stored at -20° C. Type II collagen solution was diluted to 2 mg/ml concentration and emulsified thoroughly with an equal volume of incomplete Freund's adjuvant (ICFA). The emulsion containing approximately 0.5 mg of collagen was injected intradermally on day 0 to groups of 6 inbred Lewis male rats (Charles River Breeders; 170-200 g) at various sites in the dorsal area. The hindpaw volumes of each rat were measured and recorded three times a week throughout the test period to assess the inflammatory reaction. The test group animals received compounds under test as suspensions in carboxymethylcellulose vehicle, by oral gavage, 5 days per week (Monday-Friday), beginning on day 1. Control animals received vehicle without a test compound. At the end of the test (day 28 or 30), the blood of these animals was drawn by cardiac puncture and the serum anti-type II collagen antibody levels were estimated by passive hemagglutination technique, using glutaraldehyde treated sheep red cells, to which type II collagen is conjugated [Avramaes et al., Immunochemistry, 6, 67 (1969); Andriopoulos et al., Arth. Rheum. 19, 613 (1976)]. The cellular response or delayed-type hypersensitivity response to type II collagen was measured by the radiometric ear index assay [Kostiala, Immunology, 33, 561 (1977)]. In certain experiments, the bone damage occurring because of immunization with type II collagen and the effects of drugs were determined from the radiographs of the hindpaws of two or three representative animals from each group. Injections of ICFA without collagen II were employed in some rats as a negative control; these rate received only carbomethoxycellulose vehicle during the test.
The % inhibition was calculated according to the following formula: [formula] where Vt is the hindpaw volume of a compound-treated animal (test group), Vc is the hindpaw volume of a non-compound-treated animal (carbomethoxycellulose vehicle only--the control group), and Vv is the hindpaw volume of a vehicle (carbomethoxycellulose) treated animal which received ICFA with no collagen II (negative control group).

T1 sequence (P23219 24-599): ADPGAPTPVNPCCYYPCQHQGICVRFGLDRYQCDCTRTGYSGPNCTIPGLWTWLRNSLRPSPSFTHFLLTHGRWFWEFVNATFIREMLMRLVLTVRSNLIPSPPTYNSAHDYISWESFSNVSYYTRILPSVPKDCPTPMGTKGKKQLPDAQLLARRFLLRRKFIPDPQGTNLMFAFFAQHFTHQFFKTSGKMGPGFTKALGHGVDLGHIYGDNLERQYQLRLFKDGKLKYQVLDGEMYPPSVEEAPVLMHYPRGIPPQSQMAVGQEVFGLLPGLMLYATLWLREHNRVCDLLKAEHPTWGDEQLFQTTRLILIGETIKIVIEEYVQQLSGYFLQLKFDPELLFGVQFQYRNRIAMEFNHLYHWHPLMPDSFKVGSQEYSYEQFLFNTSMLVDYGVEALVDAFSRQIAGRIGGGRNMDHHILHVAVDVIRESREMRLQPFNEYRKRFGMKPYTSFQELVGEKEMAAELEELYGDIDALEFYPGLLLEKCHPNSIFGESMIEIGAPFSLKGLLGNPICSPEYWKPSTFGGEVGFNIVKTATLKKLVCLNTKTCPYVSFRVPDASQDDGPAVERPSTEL

IC50 [1] [µM] | SMILES | inhibition at 30 µg/mL [1] [%] | inhibition in vivo at 3 mg/kg [2] [%] | inhibition in vivo at 25 mg/kg [2] [%] | inhibition in vivo at 30 mg/kg [2] [%] | inhibition in vivo at 50 mg/kg [2] [%] | inhibition in vivo at 10 mg/kg [2] [%]
1.1 | CCCc1c(O)ccc(C(=O)c2ccccc2O)c1O [Example 4, (2,4-Dihydroxy-3-propylphenyl)(2hydroxyphenyl)methanone] | – | – | – | – | 47 | –
84.9 | CCCc1c(OCCCCC#N)ccc(C(=O)c2ccccc2O)c1O [Example 11, 5-[3-Hydroxy-4-(2-hydroxybenzoyl)-2-propylphenoxy]pentanenitrile] | – | – | 31 | – | – | 0
121 | CCCc1c(OCCCCC(=O)O)ccc(C(=O)c2ccccc2O)c1O [Example 30, 5-[3-Hydroxy-4-(2-hydroxybenzoyl)-2-propylphenoxy]pentanoic acid] | – | – | – | – | 24 | –

The remaining lines, values behind:

SMILES | IC50 [1] [µM] | inhibition at 30 µg/mL [1] [%] | inhibition in vivo at 3 mg/kg [2] [%] | inhibition in vivo at 25 mg/kg [2] [%] | inhibition in vivo at 30 mg/kg [2] [%] | inhibition in vivo at 50 mg/kg [2] [%] | inhibition in vivo at 10 mg/kg [2] [%]
CCCc1c(OCCCCc2nnn[nH]2)ccc(C(=O)c2ccccc2O)c1O [Example 26, (2-Hydroxyphenyl)(2-hydroxy-3-propyl-4[4-(1H-tetrazol-5-yl)butoxy]phenyl)methanone] | – | 44 | 65 | 71 | 62 | – | –
CCCc1c(OCCCCCCCCc2nnn[nH]2)ccc(C(=O)c2ccccc2O)c1O [Example 28, (2-Hydroxyphenyl)[2-hydroxy-3-propyl-4-([8-(1H-tetrazol-5-yl)octyl]oxy)phenyl]methanone] | 12.2 | – | 65 | – | 95 | – | 48
COc1ccccc1C(=O)c1ccc(OC)c(C)c1O [Example 9, (2-hydroxy-4-methoxy-3-methylphenyl)(2-methoxyphenyl)methanone] | – | 35 | – | – | – | 0 | –
CCCc1c(OCCCCc2nnn[nH]2)ccc(C(=O)c2ccccc2OC)c1O [Example 23, (2-Hydroxy-3-propyl-4-[4-(1H-tetrazol-5-yl)butoxy]phenyl)(2-methoxyphenyl)methanone] | – | 17 | 33 | 69 | – | – | 67
CCCc1c(OCCCCCCc2nnn[nH]2)ccc(C(=O)c2ccccc2O)c1O [Example 25, (2-Hydroxyphenyl)[2-hydroxy-3-propyl-4-([6-(1H-tetrazol-5-yl)hexyl]oxy)phenyl]methanone] | 12.7 | – | – | 39 | – | – | –
